Experimental data reported in ChEMBL document CHEMBL3232737, “Synthesis and in vitro evaluation of small-molecule [18F] labeled gonadotropin-releasing hormone (GnRH) receptor antagonists as potential PET imaging agents for GnRH receptor expression” (Bioorg Med Chem Lett, 2014).

Tests used:
[1] = molecular target: T1, Gonadotropin-releasing hormone receptor (Rattus norvegicus, UniProt P30969); experiment: Displacement of [125I]Triptorelin from rat full-length gonadotropin-releasing hormone receptor expressed in HEK293 cells; assay type: cell-based
T1 sequence (P30969 whole entry): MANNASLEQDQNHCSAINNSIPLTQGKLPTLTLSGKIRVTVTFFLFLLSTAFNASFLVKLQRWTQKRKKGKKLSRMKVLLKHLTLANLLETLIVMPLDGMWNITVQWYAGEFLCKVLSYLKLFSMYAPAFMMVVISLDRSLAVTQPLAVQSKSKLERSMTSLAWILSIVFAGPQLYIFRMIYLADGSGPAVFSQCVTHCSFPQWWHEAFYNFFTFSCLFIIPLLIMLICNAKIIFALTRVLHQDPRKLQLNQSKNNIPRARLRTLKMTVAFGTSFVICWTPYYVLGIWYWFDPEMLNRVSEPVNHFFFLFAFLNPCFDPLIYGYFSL

[2] = Octanol-PBS partition coefficient, log P of the compound at 10 kBq at pH 7.4 by gamma counting analysis; assay type: physicochemical
[3] = molecular target: T2, Gonadotropin-releasing hormone receptor (Homo sapiens, UniProt P30968); experiment: Binding affinity to human gonadotropin-releasing hormone receptor by radioligand displacement assay
T2 sequence (P30968 whole entry): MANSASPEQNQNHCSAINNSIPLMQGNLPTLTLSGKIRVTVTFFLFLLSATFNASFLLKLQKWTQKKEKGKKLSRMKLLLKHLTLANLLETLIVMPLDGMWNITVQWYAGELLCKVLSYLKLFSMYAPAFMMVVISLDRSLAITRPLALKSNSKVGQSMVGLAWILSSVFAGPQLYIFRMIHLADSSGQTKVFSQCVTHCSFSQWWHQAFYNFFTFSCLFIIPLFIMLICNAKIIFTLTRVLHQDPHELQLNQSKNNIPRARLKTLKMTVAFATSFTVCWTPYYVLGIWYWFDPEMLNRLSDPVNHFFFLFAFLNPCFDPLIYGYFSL

[4] = molecular target: T3, Gonadotropin-releasing hormone receptor (Mus musculus, UniProt Q01776); experiment: Binding affinity to mouse gonadotropin-releasing hormone receptor by radioligand displacement assay
T3 sequence (Q01776 whole entry): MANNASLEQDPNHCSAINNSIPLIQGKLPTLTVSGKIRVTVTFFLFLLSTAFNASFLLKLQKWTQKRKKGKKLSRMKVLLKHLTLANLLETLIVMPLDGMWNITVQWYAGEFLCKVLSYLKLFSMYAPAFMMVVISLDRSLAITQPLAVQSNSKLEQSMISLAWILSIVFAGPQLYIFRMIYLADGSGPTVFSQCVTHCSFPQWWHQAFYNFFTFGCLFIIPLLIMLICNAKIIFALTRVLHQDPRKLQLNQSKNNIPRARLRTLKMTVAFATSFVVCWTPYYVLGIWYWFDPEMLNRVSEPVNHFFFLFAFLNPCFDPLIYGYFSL

COc1nc(F)nc(OC)c1NC(=O)c1ccc(Oc2cc3c(cc2C)CCC3(C)C)o1
Ki [1]: 42 nM

COc1nc(OCCF)nc(OC)c1NC(=O)c1ccc(Oc2cc3c(cc2C)CCC3(C)C)o1
Ki [1]: 1.36 nM

COc1nc(OCC[18F])nc(OC)c1NC(=O)c1ccc(Oc2cc3c(cc2C)CCC3(C)C)o1
logD [2]: 1.74

COc1cc(OC)c(NC(=O)c2ccc(Cc3cc4c(cc3C)C(C)(C)CCC4(C)C)o2)c(OC)c1
Ki [3]: 6 nM | Ki [4]: 2.2 nM
